# From PMC7990177, “Naegleria fowleri: Protein structures to facilitate drug discovery for the deadly, pathogenic free-living amoeba” (PLoS ONE, 2021)
# How the values were obtained:
# [1] = molecular target: T1, N. fowleri S-adenosyl-L-homocysteine hydrolase (NfSAHH) (Naegleria fowleri, UniProt A0A1Z0YU84); test: X-ray crystal structure; format: binding
# T1 construct: gene NF0035640; N-terminal His tag (vector pBG1861), E. coli BL21(DE3)R3 Rosetta; 472 residues; homo-tetramer in asymmetric unit
# T1 sequence (A0A1Z0YU84 1-472): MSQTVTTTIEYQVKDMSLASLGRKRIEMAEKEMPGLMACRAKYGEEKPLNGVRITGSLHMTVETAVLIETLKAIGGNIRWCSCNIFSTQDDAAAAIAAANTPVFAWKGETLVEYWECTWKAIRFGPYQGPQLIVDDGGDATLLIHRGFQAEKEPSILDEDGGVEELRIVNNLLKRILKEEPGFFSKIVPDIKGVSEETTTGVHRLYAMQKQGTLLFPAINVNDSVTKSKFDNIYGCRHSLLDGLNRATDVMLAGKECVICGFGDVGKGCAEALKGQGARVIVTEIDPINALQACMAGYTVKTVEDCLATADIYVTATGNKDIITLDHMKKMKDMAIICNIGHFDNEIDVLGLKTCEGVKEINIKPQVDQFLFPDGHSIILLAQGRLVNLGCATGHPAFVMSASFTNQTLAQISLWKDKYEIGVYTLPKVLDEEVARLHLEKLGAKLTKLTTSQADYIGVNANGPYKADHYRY
# [2] = molecular target: T2, N. fowleri peptidylprolyl isomerase (NfPPI) (Naegleria fowleri, UniProt A0A2H4A315); test: X-ray crystal structure; format: binding; conditions: active site; Fig 4C legend calls the 6MKE ligand FK506-AN
# T2 construct: gene NF0084240; N-terminal His tag (vector pBG1861), E. coli BL21(DE3)R3 Rosetta; 119 residues; FKBP family; chains A-D in crystal
# T2 sequence (A0A2H4A315 1-119): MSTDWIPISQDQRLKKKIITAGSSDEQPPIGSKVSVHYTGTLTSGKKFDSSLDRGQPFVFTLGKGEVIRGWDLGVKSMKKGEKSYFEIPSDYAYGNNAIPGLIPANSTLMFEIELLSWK
compound,measurement,setting,value
Nc1ncnc2c1ncn2[C@@H]1O[C@H](CO)[C@@H](O)[C@H]1O [adenosine],X-ray crystal structure,"[1]; with NAD, active site, closed conformation",contains the adenosine substrate and NAD cofactors bound to the active site
C=CC[C@@H]1/C=C(\C)C[C@H](C)C[C@H](OC)[C@H]2O[C@@](O)(C(=O)C(=O)N3CCCC[C@H]3C(=O)O[C@H](/C(C)=C/[C@@H]3CC[C@@H](O)[C@H](OC)C3)[C@H](C)[C@@H](O)CC1=O)[C@H](C)C[C@@H]2OC [FK506],X-ray crystal structure,[2],Quaternary structure of NfPPI (6MKE)
NC(=O)c1ccc[n+]([C@@H]2O[C@H](COP(=O)(O)OP(=O)(O)OC[C@H]3O[C@@H](n4cnc5c(N)ncnc54)[C@H](O)[C@@H]3O)[C@@H](O)[C@H]2O)c1 [NAD],X-ray crystal structure,"[1]; with adenosine, 2.0 Å omit map shown",contains the adenosine substrate and NAD cofactors bound to the active site
